Measurements taken from patent publication US11766447B2, “3′3′-cyclic dinucleotide analogue comprising a cyclopentanyl modified nucleotide as sting modulator” (INSTITUTE OF ORGANIC CHEMISTRY AND BIOCHEMISTRY ASCR, V.V.I., priority 2019, dated 2023).
Read-outs that look alike come from different tables or passages of the source.

Experiments:
[1] = target: T1, AQ STING (G230A-R293Q) (Homo sapiens, UniProt Q86WV6, G230A/H232R/R293Q); test: Differential scanning fluorimetry (DSF) with AQ STING; type: binding; details: thermal shift vs apoprotein; 150 μM CDN; truncated human AQ STING 0.1 mg/ml
T1 construct: 8xHis (N, cleaved yes); SUMO (N, cleaved yes); made in house; host or cells: E. coli Rosetta-gami B (DE3)
Outline: (§1)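 […] STING proteins, alone or with CDNs, in triplicate, thermally denatured on a real-time PCR cycler. Denaturing temperatures taken from first-derivative curves; shift = mean Tm of STING–CDN complex minus mean Tm of apoprotein.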

[2] = system: peripheral blood mononuclear cells (PBMC); test: Peripheral blood mononuclear cell (PBMC) assay; type: cell-based; details: PBMC, 1 h with compounds, washed, 15 hour incubation, average of one to four donors
Outline: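 PBMCs exposed to serially diluted compound for 1 h at 37° C, 5% CO2, then washed twice and cultured 15 h in compound-free medium. IFN-α, IFN-γ and TNF-α measured in collected medium by multiplex bead immunoassay. Values averaged over runs from one to four donors.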

[3] = target: T2, WT STING (Homo sapiens, UniProt Q86WV6, H232R); test: Digitonin assay using 293T wtSTING-FL reporter cells; type: cell-based; parameters: host or cells: 293T (ATCC CRL-3216), stably transfected, with 4xISRE firefly luciferase reporter; details: 293T wtSTING-FL cells, ISRE firefly luciferase; compounds in Digitonin buffer 30 minutes, then 5 hours; 8-point curve
Target sequence in this assay (Q86WV6 whole entry H232R): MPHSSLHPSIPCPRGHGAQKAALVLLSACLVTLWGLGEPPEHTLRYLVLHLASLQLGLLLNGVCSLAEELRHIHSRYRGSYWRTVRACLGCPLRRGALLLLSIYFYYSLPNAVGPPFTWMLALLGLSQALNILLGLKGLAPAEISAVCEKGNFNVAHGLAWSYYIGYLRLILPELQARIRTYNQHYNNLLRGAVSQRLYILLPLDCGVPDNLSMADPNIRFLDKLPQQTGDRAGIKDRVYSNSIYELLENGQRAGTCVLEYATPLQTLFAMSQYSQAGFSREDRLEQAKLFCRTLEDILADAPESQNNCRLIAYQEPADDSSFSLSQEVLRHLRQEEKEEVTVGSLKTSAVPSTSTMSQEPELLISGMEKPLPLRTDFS

[4] = target: T2, WT STING; test: 293T WT STING standard reporter assay; type: cell-based; parameters: host or cells: 293T (ATCC CRL-3216), stably transfected, with 4xISRE firefly luciferase reporter; details: 293T wtSTING-FL cells, ISRE firefly luciferase; no digitonin; 7 hours with compounds; 8-point curve
Source text: Two complementary oligonucleotides of the sequence […] […] […] […] […] The oligonucleotides were mixed in equal molar amounts, hybridized, and cleaved by restriction endonucleases HindIII (cat. #. R0104S, NEB, Ipswich, USA) and BglII (cat. #R0144S, NEB, Ipswich, USA). Ultimately, they were ligated into plasmid pGL4.27 (cat. #E6651, Promega, Madison, USA) linearized with the same enzymes. As result the sequence with four ISRE sites was placed upstream of the minimum promoter of firefly luciferase reporter gene.
After 5 minutes incubation at room temperature (RT), 250 μL of the mixture was added dropwise to the cells in one well. Cells were incubated 36 hours at 37° C. with 5% CO2, and then detached with 0.05% Trypsin and 0.22 g/L EDTA (both cat. #L0941, Biowest, Riverside, USA).
Transfected cells were seeded onto poly-D-lysine coated six well plates at density 50,000 cells per 1 cm^2 in DMEM medium with high glucose containing 10% heat inactivated FBS, 30 μg/mL blasticidin (cat. #ant-b1-05, InvivoGen, San Diego, USA), 0.06 mg/ml Penicillin G and 0.1 mg/ml Streptomycin Sulfate (both cat. #. L0018, Biowest, Riverside, USA). The medium was replenished every 3-4 days until visible colonies of cells resistant to blasticidin were formed.
Blasticidin resistant cells stably expressing WT STING were further transfected with […] plasmid following the same procedure as described above. […] Homogeneous culture of stably double transfected cells was prepared by limiting dilution of cells in 96 well plates and wells with cells were selected that originated from a single cell.
The medium was removed next day and three-fold serial dilutions of compounds in 100 μl medium were added to the cells. The plates with cells were incubated for 7 hours at 37° C. with 5% CO2. After 50 μl of the medium was removed, 30 μl of ONE-Glo™ Luciferase Assay System reagent (cat. #E6120, Promega, Madison, USA) was added to each well and luminescence was read on Synergy H1 (Biotek, Winooski, USA).
Target sequence in this assay (Q86WV6 whole entry H232R): as above

[5] = target: T2, WT STING; test: Differential scanning fluorimetry (DSF) with WT STING; type: binding; parameters: 8xHis (N, cleaved yes); SUMO (N, cleaved yes); made in house; host or cells: E. coli Rosetta-gami B (DE3); details: thermal shift vs apoprotein; 150 μM CDN; truncated human WT STING 0.1 mg/ml
Outline: as §1
Target sequence in this assay (Q86WV6 140-343 H232R): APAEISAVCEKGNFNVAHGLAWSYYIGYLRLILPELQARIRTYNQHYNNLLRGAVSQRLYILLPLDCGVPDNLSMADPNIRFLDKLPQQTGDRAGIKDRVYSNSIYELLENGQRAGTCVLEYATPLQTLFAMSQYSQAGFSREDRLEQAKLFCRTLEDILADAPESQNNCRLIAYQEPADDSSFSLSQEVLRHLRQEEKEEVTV

[6] = interferon-alpha level, read-out: PBMC EC50 (μM) IFN-α
[7] = interferon-gamma level, read-out: PBMC EC50 (μM) IFN-γ
[8] = tumor necrosis factor-alpha level, read-out: PBMC EC50 (μM) TNF-α

T1 sequence (Q86WV6 140-343 G230A/H232R/R293Q): as the sequence (Q86WV6 140-343 H232R) above, with G91A, R154Q counted along it

Row | ΔTm at 150 µM [1] | EC50 [3] | EC50 [4] | ΔTm at 150 µM [5] | DSF ΔTm (° C.) AQ STING [1] | DSF ΔTm (° C.) WT STING [5] | SMILES | EC50 [2, 6] | EC50 [2, 7] | EC50 [2, 8]
1 | 12.8 °C | 0.05 µM | 4.9 µM | 6.2 °C |  |  | Nc1ncnc2c1ncn2[C@@H]1C[C@@H]2COP(=O)(O)OC3C[C@H](n4cnc5c(N)ncnc54)O[C@@H]3COP(=O)(O)OC2C1F (stereo partly drawn) [Compound 124, (2R,3aS,7aR,9R,10S,10aR,14aR)-2,9-bis(6-amino-9H-purin-9-yl)-10-fluoro-5,12-dihydroxydecahydro-2H-cyclopenta[d]furo[3,2-j][1,3,7,9]tetraoxa[2,8]diphosphacyclododecine 5,12-dioxide] | 290 µM | 43 µM | 223 µM
2 |  | 0.01 µM | 0.4 µM |  | 17.5 °C | 12.2 °C | Nc1ncnc2c1ncn2[C@@H]1C[C@@H]2COP(=O)(S)O[C@@H]3[C@@H](COP(=O)(S)O[C@H]2[C@H]1F)C[C@@H](n1cnc2c(N)ncnc21)[C@@H]3F (single isomer, unassigned) [Compound 128b] | 27 µM | 6.5 µM | 19 µM
3 |  | 0.03 µM | 10.2 µM |  | 19.4 °C | 11.5 °C | Nc1nc2c(ncn2[C@@H]2O[C@@H]3COP(=O)(O)O[C@@H]4[C@H](O)[C@@H](COP(=O)(O)O[C@@H]2[C@@H]3O)O[C@H]4n2cnc3c(N)ncnc32)c(=O)[nH]1 [2′2′-cGAMP, reference compound] |  |  | 
4 | 20.7 °C | 0.01 µM | 1 µM | 14.7 °C |  |  | Nc1ncnc2c1ncn2[C@@H]1C[C@@H]2COP(=O)(O)O[C@H]3[C@@H](F)[C@H](n4cnc5c(N)ncnc54)O[C@@H]3COP(=O)(S)O[C@H]2[C@H]1F (single isomer, unassigned) [Compound 130a] |  |  | 
5 |  | 0.007 µM | 0.3 µM |  | 20.8 °C | 13.7 °C | Nc1nc2c(ncn2[C@@H]2C[C@@H]3COP(=O)(S)O[C@H]4[C@@H](F)[C@H](n5cnc6c(N)ncnc65)O[C@@H]4COP(=O)(S)O[C@H]3C2)c(=O)[nH]1 (single isomer, unassigned) [Compound 129d] | 27 µM | 23 µM | 25 µM
6 |  | 0.01 µM | 1.2 µM |  | 20.3 °C | 13.6 °C | Nc1ncnc2c1ncn2[C@@H]1C[C@@H]2COP(=O)(O)O[C@H]3[C@@H](F)[C@H](n4cnc5c(N)ncnc54)O[C@@H]3COP(=O)(S)O[C@H]2[C@H]1F (single isomer, unassigned) [Compound 130b] |  |  | 
7 | 16.6 °C | 0.05 µM | 11.7 µM | 5.7 °C |  |  | Nc1ncnc2c1ncn2[C@H]1CC2OP(=O)(O)OC[C@H]3O[C@@H](n4cnc5c(N)ncnc54)C(F)C3OP(=O)(O)OC[C@H]2C1 (stereo partly drawn) [Compound 119, (2R, 3R, 3aR, 7aR, 9R, 10aS, 14aR)-2,9-bis(6-amino-9H-purin-9-yl)-3-fluoro-5,12-dihydroxydecahydro-2H-cyclopeanta[d]furo[3,2-j][1,3,7,9]tetraoxa[2,8]diphosphacyclododecine 5,12-dioxide] | 265 µM | 169 µM | 146 µM
8 | 17 °C | 0.01 µM | 1.9 µM | 10.3 °C |  |  | Nc1ncnc2c1ncn2[C@@H]1C[C@@H]2COP(=O)(O)OC3C(F)[C@H](n4cnc5c(N)ncnc54)O[C@@H]3COP(=O)(O)OC2C1F (stereo partly drawn) [Compound 120, (2R,3R,3aR,7aR,9R,10S,10aR,14aR)-2,9-bis(6-amino-9H-purin-9-yl)-3,10-difluoro-5,12-dihydroxydecahydro-2H-cyclopenta[d]furo[3,2-j][1,3,7,9]tetraoxa[2,8]diphosphacyclododecine 5,12-dioxide] | 64 µM | 36.6 µM | 72.6 µM
9 | 11.2 °C | 0.11 µM | 1.8 µM | 6.7 °C |  |  | Nc1ncnc2c1ncn2[C@@H]1C[C@@H]2COP(=O)(S)OC3C(F)[C@H](n4cnc5c(N)ncnc54)O[C@@H]3COP(=O)(S)OC2C1F (single isomer, unassigned) [Compound 102a] |  |  | 
10 | 13.9 °C | 0.05 µM | 2.6 µM | 7.6 °C |  |  | Nc1ncnc2c1ncn2[C@@H]1C[C@@H]2COP(=O)(O)OC3C(F)[C@H](n4cnc5c(N)ncnc54)C[C@@H]3COP(=O)(O)OC2C1F (stereo partly drawn) [Compound 121, (2R,3S,3aR,7aR,9R,10S,10aR,14aR)-2,9-bis(6-amino-9H-purin-9-yl)-3,10-difluoro-5,12-dihydroxydodecahydrodicyclopenta[d,j][1,3,7,9]tetraoxa[2,8]-diphosphacyclododecine 5,12-dioxide] | 254 µM | 200 µM | 254 µM
